Measured values reported in patent US9475783B2, “Antimicrobial agents” (Rutgers, the State University of New Jersey, priority 2012, dated 2016).
Converted amounts (≈) assume the structure as drawn.

The molecules below were run on MSSA (assay: Test A antibacterial assay, broth microdilution MIC). Settings: Staphylococcus aureus, growth read after 24 to 48 hours at OD 600 nm.
Type: cell-based
Protocol: Test A. Antibacterial Assay. Antibacterial activity can be determined as per Clinical and Laboratory Standards Institute (CLSI) guidelines using a broth microdilution assay in which log-phase bacteria are grown at 37° C. in appropriate medium containing two-fold serial dilutions of a compound to yield final concentrations ranging from 256 to 0.06 μg/mL. For determination of minimal inhibitory concentration (MIC) values, bacterial growth is monitored after 24 to 48 hours by measuring optical density at 600 nm.
With `Cc1ccc(CN(C)CNC(=O)c2c(F)ccc(OCc3nc4cc(Cl)cnc4s3)c2F)cc1` [Example 15] the MIC was 0.5 µg/mL (≈ 0.994 µM). Molecule `O=C(NCNCc1ccccc1)c1c(F)ccc(OCc2nc3cc(Cl)ccc3s2)c1F` [Example 41] has an MIC of 0.5 µg/mL (≈ 1.06 µM). With `COc1ccc(CN(C)CNC(=O)c2c(F)ccc(OCc3nc4cc(Cl)ccc4s3)c2F)cc1` [Example 10] the MIC was 0.25 µg/mL (≈ 0.483 µM). `CCN(CC)CNC(=O)c1c(F)ccc(OC(C)c2nc(C)c(-c3ccc(C(C)(C)C)cc3)s2)c1F` (stereo not shown) [Example 19] showed an MIC of 1 µg/mL (≈ 1.94 µM). `CN1CCN(CNC(=O)c2c(F)ccc(OCc3nc4cc(Cl)cnc4s3)c2F)CC1` [Example 8] showed an MIC of 2 µg/mL (≈ 4.27 µM). In the case of `O=C(NC(c1ccccc1)N1CCOCC1)c1c(F)ccc(OCc2nc3cc(Cl)cnc3s2)c1F` (stereo not shown) [Example 29], the MIC is reported as 1 µg/mL (≈ 1.88 µM). In the case of `CN(C)/C=N/C(=O)c1c(F)ccc(OCc2nc3cc(Cl)ccc3s2)c1F` [Example 3], the MIC is reported as < 0.125 µg/mL. With `CNCNC(=O)c1c(F)ccc(OCc2nc3cc(Cl)ccc3s2)c1F` [Example 27] the MIC was 0.125 µg/mL (≈ 0.314 µM). In the case of `Cc1nc(COc2ccc(F)c(C(=O)NCN3CCC(C)CC3)c2F)sc1-c1ccc(C(C)(C)C)cc1` [Example 21], the MIC is reported as 0.5 µg/mL (≈ 0.948 µM). `O=C(NC(c1cccc(Br)c1)N1CCOCC1)c1c(F)ccc(OCc2nc3cc(Cl)ccc3s2)c1F` (stereo not shown) [Example 30] gave an MIC of 0.5 µg/mL (≈ 0.821 µM). With `O=C(NCn1ccnc1)c1c(F)ccc(OCc2nc3cc(Cl)ccc3s2)c1F` [Example 2] the MIC was > 64 µg/mL. Work on `CN1CCN(C(NC(=O)c2c(F)ccc(OCc3nc4cc(Cl)ccc4s3)c2F)c2ccccc2)CC1` (stereo not shown) [Example 38] yielded an MIC of 8 µg/mL (≈ 14.7 µM). Work on `Cc1ccc(CN(C)CNC(=O)c2c(F)ccc(OCc3nc4cc(Cl)ccc4s3)c2F)cc1` [Example 14] yielded an MIC of 0.25 µg/mL (≈ 0.498 µM). Work on `Cc1ccc(CN(C)CNC(=O)c2c(F)ccc(OCc3nc(-c4ccc(C(F)(F)F)cc4)c(Br)o3)c2F)cc1` [Example 23] yielded an MIC of 0.25 µg/mL (≈ 0.4 µM). In the case of `CN(CNC(=O)c1c(F)ccc(OCc2nc3cc(Cl)cnc3s2)c1F)Cc1ccc(C(F)(F)F)cc1` [Example 13], the MIC is reported as 1 µg/mL (≈ 1.8 µM). With `CN(CNC(=O)c1c(F)ccc(OCc2nc3cc(Cl)ccc3s2)c1F)Cc1ccc(C(F)(F)F)cc1` [Example 12] the MIC was 0.5 µg/mL (≈ 0.899 µM). Molecule `Cc1nc(COc2ccc(F)c(C(=O)NCN3CCC(C)CC3)c2F)sc1-c1ccc(C(F)(F)F)cc1` [Example 43] has an MIC of 2 µg/mL (≈ 3.71 µM). Molecule `CC(C)(C)NCNC(=O)c1c(F)ccc(OCc2nc3cc(Cl)ccc3s2)c1F` [Example 40] has an MIC of 0.5 µg/mL (≈ 1.14 µM). With `CCN(CC)CNC(=O)c1c(F)ccc(OCc2nc(-c3ccc(C(F)(F)F)cc3)c(Br)o2)c1F` [Example 22] the MIC was 0.125 µg/mL (≈ 0.222 µM). Work on `Cc1ccc(CN(C)CNC(=O)c2c(F)ccc(OCc3nc4cc(Cl)ccc4o3)c2F)cc1` [Example 25] yielded an MIC of 16 µg/mL (≈ 32.9 µM). Molecule `CN1CCN(C(NC(=O)c2c(F)ccc(OCc3nc4cc(Cl)ccc4s3)c2F)c2ccncc2)CC1` (stereo not shown) [Example 37] has an MIC of 0.5 µg/mL (≈ 0.919 µM). `CCN(CC)CNC(=O)c1c(F)ccc(OCc2nc3cc(Cl)ccc3s2)c1F` [Example 9] was tested, and the MIC was 0.125 µg/mL (≈ 0.284 µM).
